Like-named read-outs stand apart in the source and are kept apart here.
Key:
[1] = racemic Inversine 2.5 mg BID, spinal cord injury subjects; cited from earlier work
[2] = biological target: T1, human α3β4 channels (Homo sapiens, UniProt P30926+P32297); experiment: Use-dependent inhibition of human α3β4 channels expressed in CHO cells (Dynaflow electrophysiology); type: cell-based
T1 construct: host or cells: CHO cells
Description: There was an assumption that the dependence on the number of co-applications would be the most relevant to clinical concentrations, since upon the time of exposure in vivo, the number of open channels could reach substantial numbers; perhaps due to channel spontaneous opening, flickering, and endogenous transmitter release as a result of brain activity. All experiments were performed using a conventional Dynaflow (Cellectricon Inc.) electrophysiological system. Dynaflow settings: To achieve continuous exposure to the drug we used following Dynaflow chip loading. An example of standard chip loading for use-dependent experiments with example for 30 μM ACh and 0.1 μM of TC-05231 (racemic mecamylamine). For the following experiments, ACh always consisted of 30 μM and concentrations of compounds were, 0.03, 0.1, 0.3 and 1.0 (μM). FIG. 13 illustrates the settings.
Applications were performed by positioning the cell in front of channel #1 for 1 second, followed by channel #3, then back to channel #1 by rapidly moving the Dynaflow chip, which consisted of both the laminar flow from the channels and the entire bath solution. The additional channels between control and ACh-containing channel were used: (1) to provide the needed space for an additional washout to avoid contaminating the control channels with the agonist solution; and (2) to allow for the necessary amount of time for the Dynaflow stage to reach its optimum scanning speed.
3.1. Establishment of recording baseline: First, pipette with cells moved to channel #3. Then cells were exposed to ACh by moving cells to channel #1 for 1 second and back to channel #3. This movement of cells was repeated 10 times at 30 second intervals;
3.2. Collection data on use-dependent inhibition: After establishment of stable baseline, cells were moved to channel #6 and exposed to a test compound for 30 sec. Then cells were moved to channel #8 for 1 second and back to channel #6 for 30 seconds (total 10 times with intervals 30 seconds); and 3.3. To test reversibility of block (washout): repeat step 1. Note: with this chip setting, during repeated application of acetylcholine plus test compound, there was no interruption in application of compounds. For all calculations, peak current amplitude was normalized to the peak current amplitude evoked by the 10th application of acetylcholine. Experimental Results

[3] = biological target: NMDA receptor NR1a-NR2A (Homo sapiens, UniProt Q05586+Q12879); experiment: Glutamate-evoked currents at NR1a-NR2A receptors in Xenopus oocytes (two electrode voltage-clamp); type: cell-based; conditions: for recovery following wash-out: after sustained exposure
Sequence of NMDA receptor NR1a-NR2A (Q12879 23-1464, other chains not shown): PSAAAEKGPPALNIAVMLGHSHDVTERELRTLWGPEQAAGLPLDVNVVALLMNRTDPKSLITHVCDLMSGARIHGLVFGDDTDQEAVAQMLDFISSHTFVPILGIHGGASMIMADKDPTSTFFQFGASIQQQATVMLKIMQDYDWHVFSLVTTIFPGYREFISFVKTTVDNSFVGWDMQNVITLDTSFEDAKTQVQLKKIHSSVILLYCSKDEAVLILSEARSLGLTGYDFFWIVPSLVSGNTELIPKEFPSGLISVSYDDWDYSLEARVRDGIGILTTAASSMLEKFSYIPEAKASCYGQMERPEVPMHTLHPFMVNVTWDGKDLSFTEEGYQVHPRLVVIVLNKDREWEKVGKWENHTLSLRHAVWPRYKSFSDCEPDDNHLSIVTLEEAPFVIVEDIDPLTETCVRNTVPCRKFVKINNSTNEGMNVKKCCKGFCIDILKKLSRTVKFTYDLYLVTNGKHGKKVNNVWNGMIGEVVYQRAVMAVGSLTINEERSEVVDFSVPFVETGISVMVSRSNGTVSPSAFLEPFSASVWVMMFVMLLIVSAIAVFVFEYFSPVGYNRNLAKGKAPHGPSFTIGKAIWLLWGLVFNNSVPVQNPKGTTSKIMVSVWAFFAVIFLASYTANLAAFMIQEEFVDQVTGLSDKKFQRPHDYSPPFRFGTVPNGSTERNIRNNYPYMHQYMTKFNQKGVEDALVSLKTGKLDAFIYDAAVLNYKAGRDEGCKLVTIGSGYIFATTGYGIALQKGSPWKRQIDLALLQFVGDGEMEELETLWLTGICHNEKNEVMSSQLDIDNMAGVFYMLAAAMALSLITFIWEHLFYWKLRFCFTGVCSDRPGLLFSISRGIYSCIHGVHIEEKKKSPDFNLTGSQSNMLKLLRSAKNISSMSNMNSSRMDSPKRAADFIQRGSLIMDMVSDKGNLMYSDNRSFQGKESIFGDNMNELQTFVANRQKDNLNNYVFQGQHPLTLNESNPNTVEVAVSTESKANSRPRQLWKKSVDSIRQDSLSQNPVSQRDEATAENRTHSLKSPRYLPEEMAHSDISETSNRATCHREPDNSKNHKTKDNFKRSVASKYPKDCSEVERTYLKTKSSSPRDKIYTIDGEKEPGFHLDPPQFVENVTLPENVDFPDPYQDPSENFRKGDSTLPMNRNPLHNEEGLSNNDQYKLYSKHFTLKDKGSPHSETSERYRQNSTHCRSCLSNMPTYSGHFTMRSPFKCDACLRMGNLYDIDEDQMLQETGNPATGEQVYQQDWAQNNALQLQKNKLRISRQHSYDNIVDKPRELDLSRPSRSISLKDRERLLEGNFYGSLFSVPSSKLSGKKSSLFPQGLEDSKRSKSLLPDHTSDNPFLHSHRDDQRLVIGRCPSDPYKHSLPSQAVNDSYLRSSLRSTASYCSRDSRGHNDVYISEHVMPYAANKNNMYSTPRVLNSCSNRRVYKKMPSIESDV
Description: All experiments were carried out at receptors expressed in Xenopus oocytes using the method of cDNA expression. Currents evoked by glutamate were recorded using the standard two electrode voltage-clamp configuration (TVEC). Xenopus oocytes were prepared and injected using standard procedures.
Briefly, ovaries are harvested from Xenopus Laevis females that have been deeply anesthetized and pithed following the animal rights rule from the Geneva canton. A small piece of ovary is isolated for immediate preparation while the remaining part is placed at 4° C. in a sterile Barth solution containing in mM NaCl 88, KCl 1, NaHCO3 2.4, HEPES 10, MgSO4.7H2O 0.82, Ca(NO3)2.4H2O 0.33, CaCl2.6H2O 0.41, at pH 7.4, and supplemented with 20 μg/ml of kanamycine, 100 unit/ml penicillin and 100 μg/ml streptomycin. On the second day following dissociation, oocytes are injected with 2 ng of cDNA per oocyte containing the NR1a-NR2A or NR1a-NR2B using an automated injector (Hogg et al., J. Neurosci. Methods, 2008). […] Cells were held at −80 mV. Data were filtered at 10 Hz, captured at 100 Hz and analyzed using HiQ proprietary data acquisition and analysis software running under Matlab (Mathworks Inc.).
Oocytes expressing the NR1a-NR2A or NR1a-NR2B receptors were challenged at periodic intervals with a glutamate test pulse. Test drug was then applied during a sustained period and its effects monitored by measuring the amplitude and time course of the glutamate evoked currents.
Experiments were carried out with the NR1a-NR2A and NR1a-NR2B at least in triplicate. Positive reference compounds (ketamine and MK-801) were tested using the same protocol.
To further evaluate effects of TC-5214, experiments using sustained exposure to this compound followed by a recovery period were carried out at NR1a-NR2A and NR1a-NR2B receptors. Measurements were made with (nM) 0, 3, 10, 30, 100, 300, TC-5214 and recovery monitored during 10 minutes. In addition, the same experimental protocol will be used with cells in control conditions to assess the stability of the measurements. Effects were measured in at least three cells.
A use-dependent protocol was used to identify non-competitive inhibition of the receptors. Cells expressing the NMDA receptors were tested for their sensitivity to TC-5214 at 30 nM, using the same protocol as described above. Cells from the same batch were tested in parallel using the same incubation time with an identical concentration of TC-5214 (30 nM) but in absence of pulses during the incubation time with the compound. Two glutamate pulses were applied at the end of the incubation time, and recovery monitored as for the control conditions.

[4] = system: bladder function in conscious rats; experiment: Intravesical model in conscious rats, first study (UROsphere), cystometry; type: in vivo, rat; conditions: tolterodine 10 μM, TC-5213 1 and 10 μM, hexamethonium 10 μM, TC-5214 0.1, 1 and 10 μM
Description: (1) In a first study (performed by UROsphere), female Sprague Dawley rats (200-270 g) from Charles River France, housed in 3-4 rats per cage were anesthetized with isoflurane (1.5-3%). […], a polyethylene catheter was implanted in the bladder through the dome and exteriorized at the scapular level. Each rat was housed individually after surgery. The cystometry is depicted in FIG. 2. This is the first known experiment using the intravesical model in conscious rats to test dexmecamylamine for potential efficacy in treating OAB.
The effects of dosing dexmecamylamine (also referred to as TC-5214 and as TI-11179), at doses of 0.1, 1, and 10 μM are depicted in FIG. 4.
The effects of dosing hexamethonium (10 μM) and tolterodine (10 μM) are depicted in FIG. 5.

[5] = TC-5213 28-day repeated oral toxicity study in rats; type: in vivo, rat
Description: Eighty rats (40/sex) were assigned to 4 groups of 10/sex/group. Test article in purified water or water (vehicle) alone were administered once daily via oral gavage at a dose volume of 10 mL/kg. The dose levels were 0, 1, 10, and 50 mg/kg/day. Animals were given TC-5213-23 orally (gavage) for 28 days except those given the test article at 50 mg/kg from Day 1 to 7, followed by a dose of 40 mg/kg/day on the subsequent 21 days. The dose levels were calculated based on the free base form of the test article.

[6] = system: nicotinic receptors expressed in rat urinary bladder epithelial cells; conditions: intravesical; nicotine 0.05 and 1 μM, hexamethonium 10 and 100 μM, choline 10 and 100 μM; cited from earlier work
[7] = system: bladder function in anesthetized rats; experiment: Intravesical model in anesthetized rats (increased bladder contraction frequency), cystometry; type: in vivo, rat; conditions: 10 μM intravesical
Description: Female Sprague Dawley rats (200-290 g) from Charles River France, housed in 3-4 rats per cage were anesthetized with urethane (1.2 g/kg) s.c., 3 mL/kg). A polyethylene catheter was implanted into the bladder through the dome. Ureters were tied and cut. Intravesical infusion periods with saline followed by an intravesical infusion period with one of the test compounds, hexamethonium (10 μM) or dexmecamylamine (1 and 10 μM), are depicted in FIG. 7.
The intravesical anesthetized rat model is a model of increased bladder contraction frequency. The model is a “simplified” well established model used to evaluate OAB agents, recognizing that there are decreased inputs from cortical centers. This is the first known experiment using the intravesical anesthetized rat model of increased bladder contraction frequency to test dexmecamylamine for potential efficacy in treating OAB.

[8] = 50 mg/kg/day oral, first week, after three to seven doses

T1 sequence (P32297 32-505): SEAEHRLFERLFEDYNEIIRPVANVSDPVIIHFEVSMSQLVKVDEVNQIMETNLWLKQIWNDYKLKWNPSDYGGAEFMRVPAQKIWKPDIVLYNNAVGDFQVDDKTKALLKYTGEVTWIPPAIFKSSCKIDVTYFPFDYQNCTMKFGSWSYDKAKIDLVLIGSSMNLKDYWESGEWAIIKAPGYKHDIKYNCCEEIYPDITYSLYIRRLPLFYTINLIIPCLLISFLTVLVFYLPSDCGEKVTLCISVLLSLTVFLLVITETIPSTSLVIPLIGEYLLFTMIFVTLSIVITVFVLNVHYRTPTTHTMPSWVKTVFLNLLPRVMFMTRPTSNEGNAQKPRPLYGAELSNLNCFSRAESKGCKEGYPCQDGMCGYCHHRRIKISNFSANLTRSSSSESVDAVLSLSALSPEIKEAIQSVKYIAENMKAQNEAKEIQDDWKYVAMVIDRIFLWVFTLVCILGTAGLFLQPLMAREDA
T1 sequence (P30926 22-498): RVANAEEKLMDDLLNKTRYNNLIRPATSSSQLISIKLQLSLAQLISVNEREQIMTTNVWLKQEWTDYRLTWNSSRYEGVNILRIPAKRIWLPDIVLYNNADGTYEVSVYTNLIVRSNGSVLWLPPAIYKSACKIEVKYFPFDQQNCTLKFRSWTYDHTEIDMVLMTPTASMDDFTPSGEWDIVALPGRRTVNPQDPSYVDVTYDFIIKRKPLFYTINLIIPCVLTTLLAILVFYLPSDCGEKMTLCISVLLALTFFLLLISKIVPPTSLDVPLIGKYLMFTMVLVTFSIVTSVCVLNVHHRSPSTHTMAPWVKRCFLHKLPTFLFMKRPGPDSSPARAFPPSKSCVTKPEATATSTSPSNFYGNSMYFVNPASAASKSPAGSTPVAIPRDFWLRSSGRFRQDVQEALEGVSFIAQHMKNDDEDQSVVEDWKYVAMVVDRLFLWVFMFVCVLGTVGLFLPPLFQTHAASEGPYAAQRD

Structure (SMILES): CNC1(C)C2CCC(C2)C1(C)C.Cl (racemic) [TC-5231, N,2,3,3-tetramethylbicyclo[2.2.1]heptan-2-amine hydrochloride, reference compound]
- bladder electric potential (amplitude of contraction) [1]: decrease in bladder electric potential (amplitude of contraction)
- Inhibition by (%) ([2]; 100 nM compound, after 10 co-applications of 30 uM Ach and compound, hydrochloride): 25% ± 7%
- activity at 0.03 µM ([2]; CHO, 30 nM compound + 30 μM ACh, successive grid rows = co-applications 1 to 10, control = 100, read-out: peak current amplitude normalized to 10th ACh application, use-dependent inhibition box): 99.3%
- activity at 0.1 µM ([2]; CHO, 100 nM compound + 30 μM ACh, successive grid rows = co-applications 1 to 10 at 30 s intervals, control = 100, read-out: peak current amplitude normalized to 10th ACh application, use-dependent inhibition box): 94.5%
- inhibition at 0.1 µM ([2]; CHO, 100 nM compound with acetylcholine, read-out: inhibition of human α3β4 receptor (asymptotes to the curve, FIG. 14)): 20%
- inhibition at 0.1 µM ([2]; CHO, 100 nM compound, after 10 co-applications of 30 uM Ach and compound, read-out: Inhibition by (%)): 24.8%
- recovery (%) ([2]; after 100 nM compound, following 10 application of Ach (30 uM) alone): 105% ± 11%
- recovery / persistence of inhibition after wash out ([2]; after 30 and 100 nM compound, agonist alone): full recovery

Structure (SMILES): C[C@]12N[C@H](Cc3ccccc31)c1ccccc12 [MK-801, reference compound]
- recovery following wash-out [3]: little evidence of recovery
- inhibition by positive control ([3]; sustained exposure, glutamate test pulses): nearly complete inhibition

Structure (SMILES): Cc1ccc(O)c([C@H](CCN(C(C)C)C(C)C)c2ccccc2)c1 [tolterodine]
- significant effects in cystometry [4]: significant effects

Structure (SMILES): CN[C@]1(C)[C@H]2CC[C@H](C2)C1(C)C [TC-5213, exo-R-mecamylamine]
- distended urinary bladder, full of urine, in early dead animals: females ([5]; 50 mg/kg/day oral): 2
- distended urinary bladder, full of urine, in early dead animals: males ([5]; 50 mg/kg/day oral): 3
- early deaths, females [5, 8]: 5/10
- early deaths, males [5, 8]: 4/10
- mortality, organ weight and microscopic changes ([5]; 50→40 mg/kg/day daily oral): resulted in mortality, organ weight and/or microscopic changes
- No-Observed-Effect-Level (NOEL) ([5]; 28 days oral, males and females): 1 mg/kg/day
- opthalmological examinations ([5]; rat, in vivo): No test article related changes
- clinical pathology changes ([5]; rat, in vivo, 40 mg/kg/day): slight increases in neutrophils; slight decreases in lymphocyte and platelets; slight increases in ALT, AST, and calcium
- organ weights at necropsy ([5]; rat, in vivo, 40 mg/kg/day): decreased organ weights of prostate gland, seminal vesicles and thymus
- significant effects in cystometry [4]: significant effects

Structure (SMILES): CN1CCCC1c1cccnc1 (stereo not shown) [nicotine]
- significant effects on nicotinic receptors expressed in rat urinary bladder epithelial cells [6]: significant effects

Structure (SMILES): C[N+](C)(C)CCCCCC[N+](C)(C)C [hexamethonium]
- significant effects on nicotinic receptors expressed in rat urinary bladder epithelial cells [6]: significant effects
- changes in the frequency of bladder contraction [7]: meaningful changes

Structure (SMILES): CNC1(c2ccccc2Cl)CCCCC1=O (stereo not shown) [ketamine, reference compound]
- recovery following wash-out [3]: clear evidence for recovery
